From patent US20250059164A1, “IRAK DEGRADERS AND USES THEREOF” (Kymera Therapeutics, Inc., priority 2023, published 2025)

Legend:
IRAK4 = target: T1, IRAK4 (Homo sapiens, UniProt Q9NWZ3); test: IRAK4 MSD degradation in OCI-LY10; type: cell-based; conditions: OCI-LY10 cells, 24 hrs, Meso Scale Discovery
T1 construct: endogenous in cells; host or cells: OCI-LY10
T1 sequence (Q9NWZ3 1-460): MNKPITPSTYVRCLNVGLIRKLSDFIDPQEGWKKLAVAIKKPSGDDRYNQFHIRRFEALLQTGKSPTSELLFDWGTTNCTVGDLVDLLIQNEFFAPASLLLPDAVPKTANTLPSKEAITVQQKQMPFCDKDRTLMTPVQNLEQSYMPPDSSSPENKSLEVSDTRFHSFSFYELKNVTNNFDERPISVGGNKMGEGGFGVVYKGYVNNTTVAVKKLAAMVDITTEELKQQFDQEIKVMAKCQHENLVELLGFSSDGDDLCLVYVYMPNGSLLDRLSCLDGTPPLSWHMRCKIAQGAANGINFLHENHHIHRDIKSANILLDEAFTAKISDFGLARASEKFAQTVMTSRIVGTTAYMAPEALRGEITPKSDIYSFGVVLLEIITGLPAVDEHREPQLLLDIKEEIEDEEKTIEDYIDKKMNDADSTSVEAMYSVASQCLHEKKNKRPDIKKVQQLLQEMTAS
Summary of the method: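 OCI-LY10 cells treated 4 to 24 hours at 37° C. with 8-dose 1:3 series, top 1 to 10 μM. IRAK4 in lysates quantified by MSD sandwich immunoassay (mouse capture, rabbit detection, SULFO-TAG anti-rabbit). DC50 from three-parameter logistic fit.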

[1] = Rodent pharmacokinetics (rat PK); type: in vivo; conditions: po, dosed intravenously or orally by gavage, plasma, read-out: F % (bioavailability)
Experimental: All studies related to handling, care, and treatment of rats in the study were performed according to the guidelines approved by the Institutional Animal Care and Use Committee (IACUC). All rats had access to food and water ad libitum. Rats were dosed intravenously or orally by gavage. Whole blood was collected from the jugular vein immediately prior to dosing and at 5 (intravenously administered drugs only), 15, and 30 min and 1, 2, 4, 8, and 24 h after drug administration. After sampling, whole blood was centrifuged at 4,000×g for 5 min at 4° C. to obtain plasma.
The letter codes for bioavailability (F %) include: A (≥5%) and B (≤5%).

Compound	DC50 (IRAK4) [nM]	bioavailability [1] [%]
Cn1c(=O)n(C2CCC(=O)NC2=O)c2cccc([C@@H]3CCN(C[C@H]4CC[C@H](n5cc(NC(=O)c6cnn7ccc(N8C[C@H]9C[C@@H]8CO9)nc67)c(C(F)F)n5)CC4)C[C@H]3F)c21 (single isomer, unassigned) [I-329]	< 10	≤ 5
Cn1c(=O)n(C2CCC(=O)NC2=O)c2cccc([C@H]3CCN(C[C@H]4CC[C@H](n5cc(NC(=O)c6cnn7ccc(N8C[C@H]9C[C@@H]8CO9)nc67)c(C(F)F)n5)CC4)C[C@@H]3F)c21 (single isomer, unassigned) [I-330]	< 10	≤ 5
Cn1c(=O)n(C2CCC(=O)NC2=O)c2cccc([C@@H]3CCN(C[C@H]4CC[C@H](n5cc(NC(=O)c6cnn7ccc(N8C[C@H]9C[C@@H]8CO9)nc67)c(C(F)F)n5)CC4)CC3(F)F)c21 (single isomer, unassigned) [I-331]	< 10	≤ 5
Cn1c(=O)n(C2CCC(=O)NC2=O)c2cccc([C@H]3CCN(C[C@H]4CC[C@H](n5cc(NC(=O)c6cnn7ccc(N8C[C@H]9C[C@@H]8CO9)nc67)c(C(F)F)n5)CC4)CC3(F)F)c21 (single isomer, unassigned) [I-332]	< 10	≤ 5
Cc1nn(C2CCC(=O)NC2=O)c2cccc([C@@H]3CCN(C[C@H]4CC[C@H](n5cc6cc(NC(=O)c7cncc(C(F)(F)F)n7)ncc6n5)CC4)C[C@H]3F)c12 (single isomer, unassigned) [I-340]	10 to 100	≥ 5
Cn1c(=O)n(C2CCC(=O)NC2=O)c2ccc(F)c([C@@H]3CCN(C[C@H]4CC[C@H](n5cc6cc(NC(=O)c7cncc(C(F)(F)F)n7)ccc6n5)CC4)C[C@H]3F)c21 (single isomer, unassigned) [I-348]	< 10	≥ 5
Cn1c(=O)n(C2CCC(=O)NC2=O)c2ccc(F)c([C@H]3CCN(C[C@H]4CC[C@H](n5cc6cc(NC(=O)c7cncc(C(F)(F)F)n7)ccc6n5)CC4)C[C@@H]3F)c21 (single isomer, unassigned) [I-353]	10 to 100	≥ 5
O=C1CCC(n2c(=O)oc3c([C@@H]4CCN(C[C@H]5CC[C@H](n6cc7cc(NC(=O)c8cncc(C(F)(F)F)n8)ccc7n6)CC5)C[C@H]4F)cccc32)C(=O)N1 (single isomer, unassigned) [I-357]	< 10	≤ 5
O=C1CCC(n2c(=O)oc3c([C@H]4CCN(C[C@H]5CC[C@H](n6cc7cc(NC(=O)c8cncc(C(F)(F)F)n8)ccc7n6)CC5)C[C@@H]4F)cccc32)C(=O)N1 (single isomer, unassigned) [I-360]	> 200	≤ 5
Cn1nc(C2CCC(=O)NC2=O)c2cccc([C@@H]3CCN(C[C@H]4CC[C@H](n5cc6cc(NC(=O)c7cncc(C#N)c7)c(C(C)(C)O)cc6n5)CC4)C[C@H]3F)c21 (single isomer, unassigned) [I-362]	< 10	≥ 5
Cn1nc(C2CCC(=O)NC2=O)c2cccc([C@H]3CCN(C[C@H]4CC[C@H](n5cc6cc(NC(=O)c7cncc(C#N)c7)c(C(C)(C)O)cc6n5)CC4)C[C@@H]3F)c21 (single isomer, unassigned) [I-363]	< 10	≥ 5
Cn1nc(C2CCC(=O)NC2=O)c2cccc([C@@H]3CCN(C[C@H]4CC[C@H](n5cc6cc(NC(=O)c7cncc(C(F)(F)F)n7)ncc6n5)CC4)C[C@H]3F)c21 (single isomer, unassigned) [I-370]	< 10	≥ 5
Cc1nn(C2CCC(=O)NC2=O)c2cccc([C@@H]3CCN(C[C@H]4CC[C@H](n5cc6cc(NC(=O)c7cncc(C(F)(F)F)n7)ccc6n5)CC4)CC3(F)F)c12 (single isomer, unassigned) [I-371]	10 to 100	≥ 5
Cc1nn(C2CCC(=O)NC2=O)c2cccc([C@H]3CCN(C[C@H]4CC[C@H](n5cc6cc(NC(=O)c7cncc(C(F)(F)F)n7)ccc6n5)CC4)CC3(F)F)c12 (single isomer, unassigned) [I-372]	10 to 100	≥ 5
